Here are results for two compounds from patent publication US5663346A, “Substituted azaindolylidene compounds and process for their preparation” (Pharmacia S.p.A., priority 1994, dated 1997).

For experiment [1], the system named is K562 cells. Nature of the experiment: K562 cell Growth Inhibition Assay. The class given is cell-based. The note with it: Homo sapiens, 66 h incubation, [3H]-Thymidine incorporation, with or without 10% foetal calf serum. The method, then: In-vivo Assay K562 cell Growth Inhibition Assay 1 ml of K562 cells, grown in suspension, were incubated for 66 h with or without 10% foetal calf serum in the presence of 1 mCi of [^3 H]-Thymidine. Cells were harvested, washed three times in cold PBS and treated with 5% trichloroacetic acid for 5 min. on ice. […] The extract was counted in a liquid scintillation counter. The inhibitory activity data for a representative compound according to the present invention, obtained both in the in-vitro p45 v-abl kinase assay and in the in-vivo human chronic myeloid leukemia K562 cell growth inhibition assay described above, are set out in Table 1.
Background: Uptake of a labelled nucleoside into DNA is a usual measure of proliferation.

Experiment [2] concerns the target p45 v-abl tyrosine kinase. Nature of the experiment: p45 v-abl Kinase Assay ((Val5)-Angiotensin II phosphorylation). The note with it: in-vitro; (Val5)-Angiotensin II 2 mM, ATP 50 mM, 40 ng abl-kinase, pH 8.0; read-out: Inhibition of p-45 v-abl kinase, IC50. Type of experiment: biochemical, Abelson murine leukemia virus. The method, then: p45 v-abl Kinase Purification
The enzyme used in our test was the p45 v-abl tyrosine kinase which represents the catalytic domain of the Abelson tyrosine kinase (isolated from the Abelson murine leukemia virus). The p45 v-abl kinase was produced and isolated as described by Wang et al. in J. Biol. chem 260, 64 (1985) and by Ferguson et al. in J. Biol. Chem 260, 3652 (1985) and in Biochem J. 257, 321 (1989).
(Val^5 )-Angiotensin II phosphorylation was performed by incubation with 40 ng of purified abl-kinase and (g-^32 p)-ATP, in […] of buffer containing Tris-HCl 25 mM, Ph 8.0, MgCl2 10 Mm and dithiothreitol 0.1 Mm (kinase buffer). The reaction mixture was incubated for the indicated time at […] and the reaction stopped by adding […] of 5% trichloroacetic acid. After a brief incubation on ice, tubes were centrifuged. The supernatants were spotted on phosphocellulose paper squares (Whatman P-81) and washed extensively in acetic acid. The radioactivity bound to dried phosphocellulose squares was measured in a liquid scintillation counter. IC50 values were. calculated from triplicated determinations of each experimental point. Each inhibitor was tested at concentrations ranging from […] in the presence of fixed concentrations of peptide (2 mM) and ATP (50 mM).

For orientation: IC50 means the concentration at which inhibition is half-maximal. `Nc1ccc2c(c1)C(=Cc1c[nH]c3ncccc13)C(=O)N2` [5-amino-3-[(7-azaindol-3-yl)methylen]-2-oxindole ditrifluoroacetate]: the IC50 in experiment [1] amounted to 8800 nM; in experiment [2], 90 nM.
In the same order, the values of `N#Cc1ccc2c(c1)C(=Cc1c[nH]c3ncccc13)C(=O)N2` [5-cyano-3-[(7-azaindol-3-yl)methylen]-2-oxindole] are 2520 nM and 980 nM.
